Source: article PMC10111420, “Optimization of Host Cell-Compatible, Antimicrobial Peptides Effective against Biofilms and Clinical Isolates of Drug-Resistant Bacteria” (ACS Infectious Diseases, 2023)
Values after ≈ are worked out from the molar mass of the structure shown. Values joined by “and” are separate entries in the source; they are usually repeats but may differ in a detail not shown here. Equal values may be shown once. Where a SMILES comes first, the peptide text is derived from it. [ ]: non-standard residue; d: D form. dAgb = N=C(N)NCC[C@@H](N)C(=O)O; βAla = NCCC(=O)O

Tests used:
S. aureus (ATCC 25923) = test system: S. aureus (ATCC 25923)
Description: (§1) All peptide variants were synthesized and purified as described previously.[5],[7] They were tested in broth dilution in the presence and absence of 1 × 10^9 human RBCs per mL, 20% of the concentration in human blood, against Escherichia coli, K. pneumoniae, and Staphylococcus aureus. […] The toxicity of the variants was tested by measuring hemolysis as well as cytotoxicity against human WI-38 fibroblast cells.
(§2) Subcultures, prepared by inoculating 25 mL of fresh tryptic soy broth (TSB) with 200 μL of an overnight culture, were grown to log phase (OD600 = 0.3–0.6), after which cell counts were determined by measuring the OD600 (1.0 = 5 × 10^8 CFU/mL for E. coli, 4 × 10^8 CFU/mL for K. pneumoniae, 4 × 10^8 CFU/mL for P. aeruginosa, 1.5 × 10^8 CFU/mL for S. aureus). Bacterial cells were diluted to appropriate concentrations in TSB. We used the following clinical bacterial isolates of Klebsiella pneumoniae in this study: Strains KP6, KP46, NDM-1, KP396, and KP398 have been previously described.[43] ST58 strains C2, C3, and I2 are also described.[41] […] MRSA, […] S. aureus strain, is SAP400, a USA400 strain of community-acquired MRSA. […] The second independent set of K. pneumoniae isolates are previously described.[20],[21]
(§3) The antibiotics were serially diluted by a factor of 2:3 horizontally across 96-well plates from Corning, 25 μL per well. One column was reserved for controls. For the assays performed in the presence of RBC, type O+ human RBCs at 0 or 2.5 × 10^9 cells/mL were added in 50 μL aliquots to all wells. Following a 30-min incubation, 50 μL of TSB, inoculated with 5 × 10^5 CFU/mL, was added to all wells, and plates were incubated overnight at 37 °C. Following overnight incubation at 37 °C, the OD600 was measured (values of less than 0.1 were considered sterilized). To assess bacterial growth in the assays with RBC, the OD600 was measured after a second-day inoculation with 10 μL of solution from the original plate added to 100 μL of sterile TSB followed by overnight incubation.
(§4) Experiments were repeated four to eight times independently, with pairs of replicate measurements on each 96-well plate. After overnight growth, optical densities were measured at 660 nm and the sterilized wells were identified by having O.D. < 0.08. Nonsterilized wells were nearly opaque with OD > 0.6. For each measurement, we recorded the largest dilution that sterilized the bacteria. Statistics are done on dilution numbers, rather than calculated concentrations, because only the former have normal distributions.

human RBCs = format: cell-based
Description: Human O+ erythrocytes were obtained from Interstate Blood Bank, Inc. Red blood cells were subjected to four or more cycles of centrifugation at 1000g with resuspension in fresh PBS. Following the final wash step, the supernatant was clear and colorless. RBC concentration was determined using a standard hemocytometer.
Peptide was serially diluted in PBS starting at a concentration of 100 μM. The final volume of peptide in each well was 50 μL. To each well, 50 μL of RBCs in PBS at 2 × 10^8 cells/mL was added. As a positive lysis control, 1% Triton was used. The mixtures were incubated at 37 °C for 1 h, after which they were centrifuged at 1000g for 5 min. After centrifugation, 10 μL of supernatant was transferred to 90 μL of DI H2O in a fresh 96-well plate. The absorbance of released hemoglobin at 410 nm was recorded, and the fractional hemolysis was calculated based on the 100 and 0% lysis controls. At least three independent experiments were performed. Results shown are averages.

in vitro = format: cell-based, human; details: human
Description: (§5) The day before cytotoxicity experiments, the 10,000 cells/well were plated in a 96-well tissue-culture plate. […] To perform the cytotoxicity assay, media was removed from the wells and replaced with peptide solutions. […] The plate was read for SYTOX fluorescence every 5 min for an hour with an excitation wavelength of 504 nm and an emission wavelength of 523 nm. Percent cytotoxicity was calculated at 60 min using the 100 and 0% lysis controls. At least three independent experiments were averaged.

[1] = test system: WI-38 human fibroblast cells; assay: in vitro; format: cell-based
Description: as §5

[2] = test system: K. pneumoniae subsp. pneumoniae (ATCC 13883)
Description: as §1, §2, §3, §4

P. aeruginosa = details: cited from earlier work
[3] = test system: P. aeruginosa PAO1 (EYFP) pellicle biofilms; assay: Pellicle biofilm assay, viable cell enumeration; format: cell-based, Pseudomonas aeruginosa; details: 2 μM, 48 h pellicle biofilm, 24 h challenge, dispersing and counting viable cells
Description: Here, we directly compare the antibiofilm activity of D-CONGA and D-CONGA-Q7 using a mature pellicle biofilm of P. aeruginosa.[22] […] To determine the susceptibility of pellicle biofilms to D-CONGA and D-CONGA-Q7, we cultured 2-day-old biofilms as described in the Methods section. The coverslip-adhered biofilms were exposed to challenge solution for 24 h prior to staining with SYTOX red and imaging with CLSM for EYFP, which indicates live cells, and for SYTOX Red which stains dead cells and extracellular DNA. […] The % cell survival was quantitated in two ways: (i) COMSTAT was used to compare biofilm biomass in CLSM images by estimating the biofilm biovolume, which is calculated as the overall volume/substratum area (μm^3/μm^2).[24],[25] […] (ii) The biofilms were dispersed mechanically for subsequent enumeration of viable cells such that % survival is expressed as the ratio (CFUuntreated biofilm/CFUtreated biofilm).
The susceptibility of biofilm-embedded P. aeruginosa cells to the antimicrobial peptides was studied as reported previously[23] using a P. aeruginosa PAO1 strain expressing enhanced yellow fluorescent protein (EYFP).[22] The EYFP-expressing P. aeruginosa strain was routinely grown in Pseudomonas Isolation (PI) media (20 g/L peptone, 0.3 g/L, MgCl2·6H2O, 10 g/L, K2SO4, 25 mg/L irgasan, and 20 mL/L glycerol, pH 7.0). […] Iron supplementation was carried out by addition of a small volume of filter-sterilized 10 mM (NH4)2Fe(SO4)2 (pH ∼ 2.0) solution.
In brief: Starter cultures (5 mL PI media supplemented with 10 μM Fe) were grown (14 h) from a single-colony shaking (220 rpm) at 37 °C. To grow the pellicle biofilms, starter cultures were diluted to OD600 = 0.001 in 4 mL of PI media supplemented with 20 μM Fe, placed in 35 × 10 mm Petri dishes, and incubated statically at 30 °C for 48 h. The pellicles were harvested using circular (1.5 cm diameter) glass coverslips by gently allowing the surface of a coverslip to contact the biofilm at the air–liquid interface. […]

Row | Molecule | Hemolysis at 100 μM (fractional hemolysis) (human RBCs) | EC50 at 60 min (in vitro) [µM] | also measured
1 | CC(C)C[C@@H](NC(=O)[C@@H](CCNC(=N)N)NC(=O)[C@@H](CCNC(=N)N)NC(=O)[C@@H](C)NC(=O)[C@@H](Cc1c[nH]c2ccccc12)NC(=O)[C@@H](CCCNC(=N)N)NC(=O)[C@H](N)CCCNC(=N)N)C(=O)N[C@H](C)C(=O)N[C@H](Cc1ccccc1)C(=O)N[C@H](C)C(=O)N[C@H](Cc1ccccc1)C(=O)N[C@H](CCCNC(=N)N)C(=O)N[C@H](CCCNC(=N)N)C(N)=O [D-CONGA- NorR] (H-[dR][dR][dW][dA][dAgb][dAgb][dL][dA][dF][dA][dF][dR][dR]-NH2; N-terminus and C-terminus assumed) |  |  | MIC in Broth Dilution, S. Aureus (S. aureus (ATCC 25923)): 17 µM (≈ 29.5 µg/mL)
2 | CC(C)C[C@@H](NC(=O)[C@@H](CCCNC(=N)N)NC(=O)[C@H](CCCNC(=N)N)NC(=O)[C@@H](C)NC(=O)[C@@H](Cc1c[nH]c2ccccc12)NC(=O)[C@@H](CCCNC(=N)N)NC(=O)[C@H](N)CCCNC(=N)N)C(=O)N[C@H](C)C(=O)N[C@H](Cc1ccccc1)C(=O)N[C@@H](C)C(=O)N[C@H](Cc1ccccc1)C(=O)N[C@H](CCCNC(=N)N)C(=O)N[C@H](CCCNC(=N)N)C(N)=O [D-CONGA-L-R5,A10] (H-[dR][dR][dW][dA]R[dR][dL][dA][dF]A[dF][dR][dR]-NH2; N-terminus and C-terminus assumed) | 0.04 | > 1000 | 
3 | CC(C)C[C@@H](NC(=O)[C@@H](CCCNC(=N)N)NC(=O)[C@@H](CCCNC(=N)N)NC(=O)[C@@H](C)NC(=O)[C@@H](Cc1c[nH]c2ccccc12)NC(=O)[C@@H](CCCNC(=N)N)NC(=O)[C@H](N)CCCNC(=N)N)C(=O)N[C@H](C)C(=O)N[C@H](Cc1ccccc1)C(=O)N[C@H](C)C(=O)N[C@H](Cc1ccccc1)C(=O)N[C@H](CCCNC(=N)N)C(N)=O [D-CONGA-ΔR13] (H-[dR][dR][dW][dA][dR][dR][dL][dA][dF][dA][dF][dR]-NH2; N-terminus and C-terminus assumed) | 0.03 |  | EC50 [1]: 300 µM; MIC in Broth Dilution, K. Pneumoniae [2]: 2.1 µM (≈ 3.37 µg/mL)
4 | CC(C)C[C@@H](NC(=O)CCNC(=O)[C@@H](CCCNC(=N)N)NC(=O)[C@@H](CCCNC(=N)N)NC(=O)[C@@H](C)NC(=O)[C@@H](Cc1c[nH]c2ccccc12)NC(=O)[C@@H](CCCNC(=N)N)NC(=O)[C@H](N)CCCNC(=N)N)C(=O)N[C@H](C)C(=O)N[C@H](Cc1ccccc1)C(=O)N[C@H](C)C(=O)N[C@H](Cc1ccccc1)C(=O)N[C@H](CCCNC(=N)N)C(=O)N[C@H](CCCNC(=N)N)C(N)=O [D-CONGA-βA7] (H-[dR][dR][dW][dA][dR][dR][βAla][dL][dA][dF][dA][dF][dR][dR]-NH2; N-terminus and C-terminus assumed) | 0.02 | > 1000 | 
5 | colistin |  |  | reported MIC (P. aeruginosa): 1 μg/mL and 0.79 μM; Reduction of biofilm CFU [3]: no detectable activity
